Measured values taken from patent US8574563B2 (Bristol-Myers Squibb Company, priority 2006, dated 2013).

Test system: HCV 1b-377-neo replicon cells
Assay: HCV replicon assay, HCV 1b-377-neo replicon cells (1b FRET)
Type: cell-based, Hepatitis C virus genotype 1b
Details: Hepatitis C virus, HCV 1b-377-neo replicon cells; HCV 1b genotype; read-out: EC50 range against HCV 1b (Table 2, Range)
Outline: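 Compounds were tested in genotype 1b subgenomic replicon cells carrying a neomycin marker, alongside a matched replicon line with an NS5A Y2065H substitution that confers resistance to a reference NS5A inhibitor.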

`COC(=O)N[C@@H](C(=O)N1CCC[C@H]1c1ncc(-c2ccc(-c3ccc(-c4cnc([C@@H]5CCCN5C(=O)[C@H](OC)c5ccccc5)[nH]4)cc3)cc2)[nH]1)c1ccccc1Cl` [Example 107-43, methyl ((1R)-1-(2-chlorophenyl)-2-((2S)-2-(5-(4′-(2-((2S)-1-((2R)-2-methoxy-2-phenylacetyl)-2-pyrrolidinyl)-1H-imidazol-5-yl)-4-biphenylyl)-1H-imidazol-2-yl)-1-pyrrolidinyl)-2-oxoethyl) carbamate] was tested, and the EC50 was 0.001 to 0.999 nM.
For `COC(=O)N[C@@H](C(=O)N1CCC[C@H]1c1ncc(-c2ccc(-c3ccc(-c4cnc([C@@H]5CCCN5C(=O)[C@@H](c5ccccc5Cl)N(C)C)[nH]4)cc3)cc2)[nH]1)c1ccccc1Cl` [Example 107-44, methyl ((1R)-1-(2-chlorophenyl)-2-((2S)-2-(5-(4′-(2-((2S)-1-((2R)-2-(2-chloro-phenyl)-2-(dimethylamino)acetyl)-2-pyrrolidinyl)-1H-imidazol-5-yl)-4-biphenylyl)-1H-imidazol-2-yl)-1-pyrrolidinyl)-2-oxoethyl) carbamate], the EC50 was 0.001 to 0.999 nM.
Work on `CCNC(=O)N1CCC[C@H]1c1ncc(-c2ccc(-c3ccc(-c4cnc([C@@H]5CCCN5C(=O)[C@H](NC(=O)OC)c5ccccc5)[nH]4)cc3)cc2)[nH]1` [Example 108, methyl ((1R)-2-((2S)-2-(5-(4′-(2-((2S)-1-(ethylcarbamoyl)-2-pyrrolidinyl)-1H-imidazol-5-yl)-4-biphenylyl)-1H-imidazol-2-yl)-1-pyrrolidinyl)-2-oxo-1-phenylethyl)carbamate] yielded an EC50 of 0.001 to 0.999 nM.
Work on `O=C(OCc1ccccc1)N1CCC[C@H]1c1ncc(-c2ccc(-c3ccc(-c4cnc([C@@H]5CCCN5C(=O)OCc5ccccc5)[nH]4)cc3)cc2)[nH]1` [Example 109, dibenzyl (2S,2′S)-2,2′-(4,4′-biphenyldiylbis(1H-imidazole-5,2-diyl))di(1-pyrrolidinecarboxylate)] yielded an EC50 of 1 to 99 nM.
In the case of `O=C(N[C@@H](C(=O)N1CCC[C@H]1c1ncc(-c2ccc(-c3ccc(-c4cnc([C@@H]5CCCN5C(=O)[C@@H]5CCCO5)[nH]4)cc3)cc2)[nH]1)c1ccccc1)[C@H]1CCCO1` [Example 110, (2R)—N-((1R)-2-oxo-1-phenyl-2-((2S)-2-(5-(4′-(2-((2S)-1-((2S)-tetrahydro-2-furanylcarbonyl)-2-pyrrolidinyl)-1H-imidazol-5-yl)-4-biphenylyl)-1H-imidazol-2-yl)-1-pyrrolidinyl)ethyl)tetrahydro-2-furancarboxamide], the EC50 is reported as 0.001 to 0.999 nM.
In the case of `O=C(N[C@@H](C(=O)N1CCC[C@H]1c1ncc(-c2ccc(-c3ccc(-c4cnc([C@@H]5CCCN5C(=O)[C@@H]5CCCO5)[nH]4)cc3)cc2)[nH]1)c1ccccc1)N1CCOCC1` [Example 111, N-((1R)-2-oxo-1-phenyl-2-((2S)-2-(5-(4′-(2-((2S)-1-((2S)-tetrahydro-2-furanylcarbonyl)-2-pyrrolidinyl)-1H-imidazol-5-yl)-4-biphenylyl)-1H-imidazol-2-yl)-1-pyrrolidinyl)ethyl)-4-morpholinecarboxamide], the EC50 is reported as 0.001 to 0.999 nM.
In the case of `O=C(N[C@@H](C(=O)N1CCC[C@H]1c1ncc(-c2ccc(-c3ccc(-c4cnc([C@@H]5CCCN5C(=O)[C@@H]5CCCO5)[nH]4)cc3)cc2)[nH]1)c1ccccc1)[C@@H]1CCCO1` [Example 112, (2S)-N-((1R)-2-oxo-1-phenyl-2-((2S)-2-(5-(4′-(2-((2S)-1((2S)-tetrahydro-2-furanylcarbonyl)-2-pyrrolidinyl)-1H-imidazol-5-yl)-4-biphenylyl)-1H-imidazol-2-yl)-1-pyrrolidinyl)ethyl) tetrahydro-2-furancarboxamide], the EC50 is reported as 0.001 to 0.999 nM.
Compound `CN1CCC[C@H]1C(=O)N[C@@H](C(=O)N1CCC[C@H]1c1ncc(-c2ccc(-c3ccc(-c4cnc([C@@H]5CCCN5C(=O)[C@@H]5CCCO5)[nH]4)cc3)cc2)[nH]1)c1ccccc1` [Example 113, 1-methyl-N-((1R)-2-oxo-1-phenyl-2-((2S)-2-(5-(4′-(2-((2S)-1-((2S)-tetrahydro-2-furanylcarbonyl)-2-pyrrolidinyl)-1H-imidazol-5-yl)-4-biphenylyl)-1H-imidazol-2-yl)-1-pyrrolidinyl)ethyl)-L-prolinamide] has an EC50 of 0.001 to 0.999 nM.
